Earlier results in patent publication US7970581B2, “Methods of calculating differences of binding affinities between congeneric pairs of ligands by way of a displaced solvent functional” (The Trustees of Columbia University in the City of New York, priority 2007, dated 2011).

Biological target: factor Xa (Homo sapiens, UniProt P00742)
Conditions: experimental binding free energy of crystal structure ligand

Sequence of factor Xa (P00742 235-488 limits assumed): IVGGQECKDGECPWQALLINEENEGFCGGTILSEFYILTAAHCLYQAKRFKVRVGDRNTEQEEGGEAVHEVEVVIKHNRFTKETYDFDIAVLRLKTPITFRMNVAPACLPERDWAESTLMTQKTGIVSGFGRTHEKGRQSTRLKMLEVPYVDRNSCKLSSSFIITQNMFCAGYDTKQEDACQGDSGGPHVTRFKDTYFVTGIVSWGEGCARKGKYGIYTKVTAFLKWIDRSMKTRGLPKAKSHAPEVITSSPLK
Sequence of factor Xa (P00742 41-179 partner limits assumed): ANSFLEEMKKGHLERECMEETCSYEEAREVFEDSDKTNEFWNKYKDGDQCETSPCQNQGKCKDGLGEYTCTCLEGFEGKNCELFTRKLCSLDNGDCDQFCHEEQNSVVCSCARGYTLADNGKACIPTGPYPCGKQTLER

| SMILES | ΔGexp |
| --- | --- |
| CCOC(=O)CO/N=C(\c1ccccn1)C1(c2ccc3c(c2)nc(CNc2ccc(C(=N)N)cc2)n3C)CC1 [1G2L:T87] | -9.88 kcal/mol |
| Cc1nc2ccccc2n1Cc1ccc2c(c1)nc(CNc1ccc(C(=N)N)cc1)n2C [1G2M:R11] | -10.09 kcal/mol |
| Cc1cc(C)cc(CNC(=O)c2cc3c(C)cccc3n2Cc2cccc(C(=N)N)c2)c1 [1LQD:CMI] | -10.98 kcal/mol |
| CN1CCN(Cc2csc(C(=O)Nc3ccc(Cl)cc3C(=O)Nc3ccc(Cl)cc3)c2Cl)CC1 [1MQ5:XLC] | -12.28 kcal/mol |
| COc1cc(Cl)cc(C(=O)Nc2ccc(Cl)cn2)c1NC(=O)c1scc(C/[N+](C)=C2\NCCO2)c1Cl [1MQ6:XLD] | -15.22 kcal/mol |
| N=C(N)c1ccc(CN2CCN(S(=O)(=O)c3cc4ccc(Cl)cc4s3)CC2=O)cc1 [1NFY:RTR] | -12.12 kcal/mol |
| COc1ccc(C(=O)NCC2CCN(c3ccncc3)CC2)cc1OCCc1cc(Cl)cc(Cl)c1 [2BMG:I1H] | -10.57 kcal/mol |
| CC(C)N1CCC(NC(=O)c2cc3ccccc3n2-c2cc(-c3ccc(Cl)s3)on2)CC1 [2BOH:IIA] | -11.63 kcal/mol |
| COc1cccc(Cn2c(C(=O)NC3CCN(C(C)C)CC3)cc3ccccc32)c1 [2BQ7:IID] | -9.62 kcal/mol |
| CC(C)N1CCC(NC(=O)c2cc3ccccc3n2CC(=O)Nc2ccc(Cl)cc2)CC1 [2BQW:IIE] | -11.63 kcal/mol |
